Assays:
BT549 cells = assay: Immunofluorescence, mitotic spindle morphology; format: cell-based, human; conditions: BT549, 100 μM and 200 μM, 2.5 hr
Description: (§1) […] Prewarmed 4% paraformaldehyde in PBS was then added to each well to fix the cells before washing with PBS. Permeabilization and blocking was performed by incubating the slides with 1% BSA, 0.3% Triton X-100, 5% goat serum in PBS (PBS/B/0.3%T+5%GS) for 1 hr while shaking them at room temperature (RT). The slides were incubated with primary antibody solutions (mouse monoclonal anti-α-Tubulin [catalog number T9026; Sigma-Aldrich] and rabbit anti-CDK5RAP2 [catalog number A300-554A; Bethyl Laboratories]) at 4°C for 16 hr. The slides were washed four times with PBS/B/0.3%T+5%GS and then incubated with secondary antibody solutions (anti-rabbit IgG Alexa Fluor 488 [catalog number A21206] and anti-mouse IgG Alexa Fluor 647 [catalog number A20990]; Invitrogen) and DAPI (catalog number D3571; Invitrogen) in deionized water (300 nM) in the dark at RT for 1 hr. After four washes with PBS/B/0.3%T+5%GS, the solution was replaced with PBS and the slides were stored at 4°C until imaging was performed. Images were gathered with the use of an ICys Research Imaging Cytometer (CompuCyte) or a tandem confocal microscope (Leica).
(§2) (1 picture or pasted object on this page, not shown here)

MCF-7 cells [1] = assay: Immunofluorescence, mitotic spindle morphology; format: cell-based, human; conditions: MCF-7, 100 μM and 200 μM, 2.5 hr
Description: as §1, §2

MDA-MB-231 cells = assay: Immunofluorescence, mitotic spindle morphology; format: cell-based, human; conditions: MDA-MB-231, 100 μM and 200 μM, 2.5 hr
Description: as §1, §2

MCF-7 cells [2] = assay: Time-lapse microscopy, mitotic fate; format: cell-based, human; conditions: MCF-7, 200 μM
Description: Cells were synchronized in G2-M by incubation at 37°C and 5% CO2 for 24 hr with 9 μM of the CDK1 inhibitor RO-3306 (Merck). Cells were released by removal of the RO-3306 and four washings of 10 min each, at 37°C, with prewarmed culture media + 10% FBS. N1E-115 cells were transfected with siRNA (Supplemental Experimental Procedures) and imaged from 6 hr after transfection. Some RO-3306-synchronized cells were released with 200 μM CW069, 100 μM monastrol, or 0.2% DMSO, and imaging started immediately or 1 hr after treatment. Imaging was carried out for 24 hr, or for 4 hr in the case of the CW069/monastrol cotreatment. Imaging was conducted every 5 min in a humidified chamber with 37°C and 5% CO2, using a Nikon Eclipse TE2000-E microscope, and analyzed with NIS-Elements software (Nikon, Tokyo, Japan). The morphology of cells in mitosis and the mitotic fate (bipolar division, multipolar division, or cell death) were analyzed.

HeLa cells = assay: Immunofluorescence after time-lapse imaging, monopolar/bipolar spindles; format: cell-based, human; conditions: 200 μM CW069, 100 μM monastrol, 40 mitotic cells
Excerpt: Immediately after time-lapse imaging, cells were fixed and antibodies against α-tubulin, CDK5RAP2, and DAPI were employed to visualize MTs, centrosomes, and DNA, respectively. […] Control HeLa cells formed mainly bipolar spindles (92%), with two centrosomes positioned at the spindle poles on either side of the metaphase plate (Figure 6C; Table 1). Similar numbers of bipolar spindles were formed in CW069-treated cells (95%; Figure 6C; Table 1). Monastrol-treated cells almost exclusively formed monopolar spindles (97%) with one pole surrounded by DNA ([Luo et al., 2004]; Figure 6C; Table 1). Normal bipolar spindle formation was indeed restored for many cells (45%) when the HSET inhibitor CW069 was administered along with the KSP inhibitor monastrol (Figure 6C; Table 1).
Cells were plated at a seeding density of 1.2 × 10^4 cells per well in Ibidi eight-well chamber slides, incubated for 24 hr, and then treated with compound for 3 hr. Prewarmed 4% paraformaldehyde in PBS was then added to each well to fix the cells before washing with PBS. Permeabilization and blocking was performed by incubating the slides with 1% BSA, 0.3% Triton X-100, 5% goat serum in PBS (PBS/B/0.3%T+5%GS) for 1 hr while shaking them at room temperature (RT). The slides were incubated with primary antibody solutions (mouse monoclonal anti-α-Tubulin [catalog number T9026; Sigma-Aldrich] and rabbit anti-CDK5RAP2 [catalog number A300-554A; Bethyl Laboratories]) at 4°C for 16 hr. The slides were washed four times with PBS/B/0.3%T+5%GS and then incubated with secondary antibody solutions (anti-rabbit IgG Alexa Fluor 488 [catalog number A21206] and anti-mouse IgG Alexa Fluor 647 [catalog number A20990]; Invitrogen) and DAPI (catalog number D3571; Invitrogen) in deionized water (300 nM) in the dark at RT for 1 hr. After four washes with PBS/B/0.3%T+5%GS, the solution was replaced with PBS and the slides were stored at 4°C until imaging was performed. Images were gathered with the use of an ICys Research Imaging Cytometer (CompuCyte) or a tandem confocal microscope (Leica).

N1E-115 cells = assay: IncuCyte live-cell imaging, proliferation; format: cell-based, mouse; conditions: N1E-115, 100-350 μM; p = 0.0192 control vs 150 μM
Excerpt: In order to ascertain whether CW069 could more broadly reduce proliferation in a range of cancer cells, we carried out IncuCyte live-cell imaging on N1E-115 cells and BT549 (with lower but marked centrosome amplification) and MCF-7 (with normal centrosome numbers) breast cancer cells. Cells were imaged for 21 hr prior to treatment with DMSO control (0.2%) and various concentrations of CW069, and then imaged for a further 36 hr. […] It could also be due to another direct or indirect effect, and the role of HSET in the survival of cancer cells with normal centrosome numbers remains to be fully understood.
NHDF cells were obtained from PromoCell, and the N1E-115 and HeLa cells were obtained from ATCC/LGC Standards. The BT549, MCF-7 and MDA-MB-231 cells were kind gifts from the Caldas laboratory (CRUK Cambridge Institute) and were originally obtained from ATCC/LGC. All human cells were verified by STR genotyping and all tested negative for mycoplasma. […] Fluorescence was quantified using an Infinite 200 PRO plate-reader (Tecan) at a wavelength of 545 nm. […]
For live-cell imaging, plated cells were imaged prior to treatment for 24 hr and then after treatment for 72 hr. […] Data were analyzed as the percentage of original cell confluency in order to directly compare each compound treatment with the DMSO control.

Q: Which results are given for O=C(O)c1cc(I)ccc1NC(=O)[C@H](Cc1ccccc1)NCc1ccccc1 [CW069]?
A: multipolar spindles (BT549 cells): increased multipolar spindles; bipolar spindle formation (MCF-7 cells [1]): did not perturb bipolar spindle formation; multipolar spindles (MDA-MB-231 cells): small but significant increase in multipolar spindles; bipolar division (MCF-7 cells [2]): remained unaffected; Bipolar Spindle (%) (HeLa cells): 95%; Monopolar Spindle (%) (HeLa cells): 5%; cell proliferation (N1E-115 cells): reduction in cell proliferation
